In US11583532B2, “Triazolopyrimidine derivatives for use as ghrelin o-acyl transferase (GOAT) inhibitors” (Boehringer Ingelheim International GmbH, priority 2018, dated 2023):
Several values for one entry are separate records, joined by “and”; a condition that tells them apart may be missing. Equal entries are not always repeated.

Molecular target: human GOAT (ghrelin O-acyl transferase) (Homo sapiens (Human), UniProt Q96T53)
Test: Determination of hGOAT activity in HEK293 cells after incubation with test compound (acyl-ghrelin ELISA)
Format: cell-based
Details: HEK293 cells stably transfected with preproghrelin and human GOAT cDNA; octanoate-BSA 100 μM; 5 hours incubation; acyl-ghrelin in medium by ELISA; 8 compound concentrations
Experimental: Determination of hGOAT Activity in HEK293 Cells after incubation with test compound
HEK293 cells stably transfected with two expression vectors, one coding for preproghrelin cDNA and a second for the expression of human GOATcDNA are used as a cellular model. After feeding the cells with octanoic acid for 5 hours, acyl-ghrelin is measured in cell culture medium by an ELISA procedure.
Cellline: Hek293 hGOAT/PPGhrl Clone #1B8Sodium octanoate, Sigma, Cat.-No. C5038
BSA: Sigma, Cat.-No. A8806
BD Poly-D-Lysin 384-well Plates, black-clear polystyrene BD Bioscience Cat.-No. […] ELISA human acylated Ghrelin Kit purchased from Bertin Pharman (detailed composition of buffers e.g. wash-puffer, ELISA buffer not known)
All further reagents used were of highest analytical grade available.
Cells are plated with a density of 5000 cells/well in 384-well poly-D-lysin plates and incubated for 1 day at 37° C., 5% CO2 in DMEM medium, 10% FCS, 1×NEAA, Puromycin (0.5 μg/ml) and G418 (1 mg/ml). Then the medium is changed to a identical medium without FCS and containing Octanoate-BSA (final concentration 100 μM each) and compound in DMSO (final DMSO concentration 0.3%). After incubation for 5 hours acylghrelin in the medium is measured by ELISA.
The medium sample is diluted 1:25 in Elisa buffer, a 25 μl aliquot is transferred to a 384-well ELISA plate previously washed 4 times with 100 μL wash buffer, and 25 μl tracer-solution is added. After incubation overnight (˜20 h) at 4° C. temperature the plate is washed 4 times with 100 μl wash-buffer per well. Finally 50 μl Ellman's reagent is added to each well and the plate is incubated in the dark for 20 minutes. The absorbance is measured at 405 nm in an Envision multilabel reader and the amount of acylated ghrelin is calculated according to a acylated ghrelin standard curve provided in the same plate.
The analysis of the data is performed by calculation of the percentage of acyl-ghrelin produced in the presence of test compound compared to the amount of acyl-ghrelin produced in the vehicle control samples. An inhibitor of the GOAT enzyme will give values between 100% CTL (no inhibition) and 0% CTL (complete inhibition).
IC50 values are calculated with Assay Explorer or other suited software based on curve fitting of results of 8 different compound concentrations.

Sequence of human GOAT (ghrelin O-acyl transferase) (Q96T53 whole entry): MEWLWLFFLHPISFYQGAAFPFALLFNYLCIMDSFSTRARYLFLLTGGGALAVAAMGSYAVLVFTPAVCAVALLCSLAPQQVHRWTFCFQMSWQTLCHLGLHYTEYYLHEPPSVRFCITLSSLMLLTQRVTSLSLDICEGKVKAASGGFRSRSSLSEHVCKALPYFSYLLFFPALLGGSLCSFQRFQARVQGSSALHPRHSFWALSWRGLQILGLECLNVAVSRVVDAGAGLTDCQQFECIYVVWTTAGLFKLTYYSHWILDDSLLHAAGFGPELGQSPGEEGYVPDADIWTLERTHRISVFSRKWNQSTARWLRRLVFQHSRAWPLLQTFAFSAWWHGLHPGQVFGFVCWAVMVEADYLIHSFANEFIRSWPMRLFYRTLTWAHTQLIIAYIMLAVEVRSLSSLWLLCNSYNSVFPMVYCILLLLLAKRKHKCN

Row | Structure (SMILES) | IC50
1 | Cc1nc2ncnn2c(N)c1Cc1ccc(Br)c(OCC(C)(F)F)n1 [Example 1.1, 6-{[5-Bromo-6-(2,2-difluoropropoxy)pyridin-2-yl]methyl}-5-methyl-[1,2,4]triazolo[1,5-a]pyrimidin-7-amine] | 0.31 nM
2 | Cc1nc2ncnn2c(N)c1Cc1ccc(OC(F)F)c(Br)c1 [Example 1.2] | 2 nM
3 | Cc1nc2ncnn2c(N)c1Cc1ccc(C(F)(F)F)c(-c2ccco2)n1 [Example 2.1, 6-{[6-(Furan-2-yl)-5-(trifluoromethyl)pyridin-2-yl]methyl}-5-methyl-[1,2,4]triazolo[1,5-a]pyrimidin-7-amine] | 0.4 nM
4 | Cc1nc2ncnn2c(N)c1Cc1ccc(C(F)(F)F)c(N2CCOCC2)n1 [Example 3.1, 5-Methyl-6-{[6-(morpholin-4-yl)-5-(trifluoromethyl)pyridin-2-yl]methyl}-[1,2,4]triazolo[1,5-a]pyrimidin-7-amine] | 0.65 nM
5 | Cc1nc2ncnn2c(N)c1Cc1ccc(C(F)(F)F)c(N2CC(F)(F)C2)n1 [Example 3.3] | 0.32 nM and 0.76 nM
6 | Cc1nc2ncnn2c(N)c1Cc1ccc(C(F)(F)F)c(N)n1 [Example 3.4] | 6.5 nM
7 | Cc1nc2ncnn2c(N)c1Cc1ccc(OC(F)F)c(Br)n1 [Example 4.1, 6-{[6-Bromo-5-(difluoromethoxy)pyridin-2-yl]methyl}-5-methyl-[1,2,4]triazolo[1,5-a]pyrimidin-7-amine] | 0.3 nM
8 | COc1nc(C(F)(F)F)ccc1Cc1c(C)nc2ncnn2c1N [Example 4.2] | 1.9 nM
9 | Cc1nc2ncnn2c(N)c1Cc1ccc(C(F)(F)F)c(Br)c1 [Example 4.3] | 1.1 nM
10 | Cc1nc2ncnn2c(N)c1Cc1ccc(OC(F)(F)F)c(Br)c1 [Example 4.4, 6-{[3-bromo-4-(trifluoromethoxy)phenyl]methyl}-5-methyl-[1,2,4]triazolo[1,5-a]pyrimidin-7-amine] | 1.1 nM
11 | CCOc1cc(C(F)(F)F)ccc1Cc1c(C)nc2ncnn2c1N [Example 4.5] | 2.4 nM
12 | Cc1nc2ncnn2c(N)c1Cc1ccc(C(F)(F)F)nc1OC1CCC1 [Example 4.6] | 3 nM
13 | CCOc1nc(C(F)(F)F)ccc1Cc1c(C)nc2ncnn2c1N [Example 4.7] | 2.9 nM
14 | Cc1nc2ncnn2c(N)c1Cc1cccc(OC(F)F)n1 [Example 4.8] | 8.8 nM
15 | Cc1nc2ncnn2c(N)c1Cc1ccc(C(F)F)cc1 [Example 4.9] | 9.8 nM
16 | Cc1nc2ncnn2c(N)c1Cc1ccc(Br)c(OC(F)F)n1 [Example 5.1, 6-{[5-Bromo-6-(difluoromethoxy)pyridin-2-yl]methyl}-5-methyl-[1,2,4]triazolo[1,5-a]pyrimidin-7-amine] | 0.13 nM
17 | Cc1nc2ncnn2c(N)c1Cc1ccc(OC(F)(F)F)cc1 [Example 6.1, 5-methyl-6-{[4-(trifluoromethoxy)phenyl]methyl}-[1,2,4]triazolo[1,5-a]pyrimidin-7-amine] | 3.9 nM
18 | COc1cc(C(F)(F)F)ccc1Cc1c(C)nc2ncnn2c1N [Example 6.2] | 0.69 nM
19 | Cc1nc2ncnn2c(N)c1Cc1ccc(C(F)(F)F)cc1 [Example 6.3] | 3.4 nM
20 | Cc1nc2ncnn2c(N)c1Cc1ccc(OC(F)F)cc1 [Example 6.4] | 1.9 nM
21 | Cc1nc2ncnn2c(N)c1Cc1ccc(SC(F)(F)F)cc1 [Example 6.5, 5-methyl-6-({4-[(trifluoromethyl)sulfanyl]phenyl}methyl)-[1,2,4]triazolo[1,5-a]pyrimidin-7-amine] | 1.7 nM
22 | Cc1nc2ncnn2c(N)c1Cc1ccc(C#N)c(NCC(F)F)n1 [Example 7.1, 6-({7-amino-5-methyl-[1,2,4]triazolo[1,5-a]pyrimidin-6-yl}methyl)-2-[(2,2-difluoroethyl)amino]pyridine-3-carbonitrile] | 0.37 nM
23 | COC(=O)c1cc(Cc2c(C)nc3ncnn3c2N)ccc1C(F)(F)F [Example 7.2] | 0.57 nM

Row | Structure (SMILES) | IC50
24 | Cc1nc2ncnn2c(N)c1Cc1ccc(C#N)c(NC2CC(F)(F)C2)n1 [Example 7.3] | 2.3 nM
25 | Cc1nc2ncnn2c(N)c1Cc1ccc(C#N)c(OCC(C)(F)F)n1 [Example 7.4] | 1.3 nM
26 | COc1cc(Cc2c(C)nc3ncnn3c2N)ccc1C(F)(F)F [Example 7.5] | 0.92 nM
27 | Cc1nc2ncnn2c(N)c1Cc1ccc(C#N)c(NCC(F)(F)F)n1 [Example 7.6] | 0.69 nM
28 | Cc1nc2ncnn2c(N)c1Cc1ccc(C#N)c(NCCC(F)F)n1 [Example 7.7] | 0.93 nM
29 | Cc1nc2ncnn2c(N)c1Cc1ccc(C#N)c(NCCF)n1 [Example 7.8] | 1.1 nM
30 | Cc1nc2ncnn2c(N)c1Cc1ccc(C#N)c(NCCCF)n1 [Example 7.9] | 1.3 nM
31 | Cc1nc2ncnn2c(N)c1Cc1ccc(C#N)c(NCC2CC2(F)F)n1 (stereo not shown) [Example 7.10] | 6.2 nM
32 | Cc1nc2ncnn2c(N)c1Cc1ccc(Br)c(OCCCF)n1 [Example 8.1, 6-{[5-Bromo-6-(3-fluoropropoxy)pyridin-2-yl]methyl}-5-methyl-[1,2,4]triazolo[1,5-a]pyrimidin-7-amine] | 0.27 nM
33 | Cc1nc2ncnn2c(N)c1Cc1ccc(Br)c(NCC(F)(F)F)n1 [Example 8.2] | 0.23 nM
34 | Cc1nc2ncnn2c(N)c1Cc1ccc(Br)c(OCCF)n1 [Example 8.3] | 0.3 nM
35 | Cc1nc2ncnn2c(N)c1Cc1ccc(Br)c(OCC(F)F)n1 [Example 8.4] | 0.3 nM
36 | Cc1nc2ncnn2c(N)c1Cc1ccc(C#N)c(OCC(F)F)n1 [Example 9.1, 6-({7-Amino-5-methyl-[1,2,4]triazolo[1,5-a]pyrimidin-6-yl}methyl)-2-(2,2-difluoroethoxy)pyridine-3-carbonitrile] | 2.4 nM
37 | Cc1nc2ncnn2c(N)c1Cc1ccc(C#N)c(OCC2(C(F)(F)F)CC2)n1 [Example 9.2] | 8.3 nM
38 | Cc1nc2ncnn2c(N)c1Cc1ccc(C#N)c(OCCCF)n1 [Example 9.3] | 0.56 nM
39 | Cc1nc2ncnn2c(N)c1Cc1ccc(C#N)c(OCCF)n1 [Example 9.4] | 3.7 nM
40 | Cc1nc2ncnn2c(N)c1Cc1ccc(C#N)c(OCC(F)(F)F)n1 [Example 9.5] | 3.9 nM
41 | Cc1nc2ncnn2c(N)c1Cc1ccc(Br)c(-n2cc(F)cn2)n1 [Example 10.1, 6-{[5-Bromo-6-(4-fluoro-1H-pyrazol-1-yl)pyridin-2-yl]methyl}-5-methyl-[1,2,4]triazolo[1,5-a]pyrimidin-7-amine] | 0.68 nM
42 | Cc1nc2ncnn2c(N)c1Cc1ccc(Br)c(-n2ccc(C(F)(F)F)n2)n1 [Example 10.2] | 2.8 nM
43 | Cc1nc2ncnn2c(N)c1Cc1ccc(Br)c(-n2cc(C(F)(F)F)cn2)n1 [Example 10.3] | 8.6 nM
44 | Cc1nc2ncnn2c(N)c1Cc1ccc(OC(F)(F)F)c(N=S(C)(C)=O)c1 [Example 11.1, {[5-({7-Amino-5-methyl-[1,2,4]triazolo[1,5-a]pyrimidin-6-yl}methyl)-2-(trifluoromethoxy)phenyl]imino}dimethyl-λ6-sulfanone] | 0.95 nM
45 | Cc1nc2ncnn2c(N)c1Cc1ccc(OC(F)(F)F)c(N=S2(=O)CCC2)c1 [Example 11.2] | 0.68 nM
46 | Cc1nc2ncnn2c(N)c1Cc1ccc(OC(F)F)c(C#N)n1 [Example 12.1, 6-({7-Amino-5-methyl-[1,2,4]triazolo[1,5-a]pyrimidin-6-yl}methyl)-3-(difluoromethoxy)pyridine-2-carbonitrile] | 4.4 nM
